According to paper PMC10536189 (Microorganisms, 2023):
Like-named read-outs stand apart in the source and are kept apart here. Where no end group is shown, it is not given here.

Assays:
[1] = system: Mycobacterium avium subsp. paratuberculosis (MAP); format: cell-based; conditions: for Effect on growth of MAP (growth-enhancing activity) of protease-stabilised peptides: peptide 10 µg/mL, absorbance at 600 nm; for Effect on growth of MAP compared to control: peptide 20 µg/mL, 37 °C
[2] = system: Mycobacterium tuberculosis (MTB); format: cell-based, Mycobacterium tuberculosis (laboratory strain H37Rv)
M. tuberculosis = format: cell-based, Mycobacterium tuberculosis (laboratory strain H37Rv); conditions: for Time to Positivity (Days.Hours) Experiment 2a / Time to Positivity (Days.Hours) Experiment 2b / Time to Positivity (Days.Hours) Experiment 1a / Time to Positivity (Days.Hours) Experiment 1b / Time to Positivity (Days.Hours) Experiment 2 / Time to Positivity (Days.Hours) Experiment 1 / Effect on TTP of MTB in words: MGIT; for Time to Positivity (Days.Hours) Experiment 2a / Time to Positivity (Days.Hours) Experiment 2b: diluted inoculum; for Time to Positivity (Days.Hours) Experiment 2a: technical repeat 2a, TB control (no peptide) 15.01; for Time to Positivity (Days.Hours) Experiment 2b: technical repeat 2b, TB control (no peptide) 15.20; for Time to Positivity (Days.Hours) Experiment 1a / Time to Positivity (Days.Hours) Experiment 1b: less diluted inoculum; for Time to Positivity (Days.Hours) Experiment 1a: technical repeat 1a, TB control (no peptide) 7.02; for Time to Positivity (Days.Hours) Experiment 1b: technical repeat 1b, TB control (no peptide) 7.01; for Time to Positivity (Days.Hours) Experiment 2: control (0 µg/mL) 6.12; for Time to Positivity (Days.Hours) Experiment 1: control (0 µg/mL) 6.19
MTB H37Rv = format: cell-based, Mycobacterium tuberculosis H37Rv; conditions: 14D at 1 µg/mL
mycobacteria [3] = experiment: TTP in BacT/Alert system; format: cell-based; conditions: Peptide 14D; BacT/Alert (Biomerieux); Figure S1
Method: (§1) Peptide 14D was used to check if other machines that are routinely used in medical microbiology for the detection of mycobacteria show shorter TTP as well. BacT/Alert (Biomerieux, Marcy-l’Étoile, France and VersaTrek (ThermoFisher, Waltham, MA, United States) were tested, and shorter TTP was shown for both systems (see Figure S1 in the Supplementary Materials).

mycobacteria [4] = experiment: TTP in VersaTrek system; format: cell-based; conditions: Peptide 14D; VersaTrek (ThermoFisher); Figure S1
Method: as §1

Mycobacterium marinum = format: cell-based, Mycobacterium marinum NCTC 2275; conditions: Peptide 14 at 20 µg/mL, 30 °C
[5] = system: Mycobacterium avium-intracellulare; format: cell-based, Mycobacterium intracellulare serotype 7 NCTC10682; conditions: Peptide 14 at 20 µg/mL
Mycobacterium celatum = format: cell-based, Mycobacterium celatum (clinical isolate); conditions: Peptide 14 at 20 µg/mL
Mycobacterium abscessus = format: cell-based, Mycobacterium abscessus (clinical human isolate); conditions: Peptide 14 at 20 µg/mL
M. bovis = format: cell-based
[6] = peptide 10 µg/mL, overall average of the averages of experiments 1a/1b and 2a/2b, negative = slower
[7] = crude peptide 10 µg/mL, average of experiments 1 and 2, negative = slower

rrwrivvirvrr-CONH2 [Peptide 69D]
Effect on growth of MAP (growth-enhancing activity) of protease-stabilised peptides [1]: growth-enhancing activity remained | Concentration at which growth inhibition of MTB is observed [2]: ≥ 10 µg/mL | Concentration with strong sustained growth stimulation of MTB [2]: 10 ng/mL

RLARIVVIRWAR-CONH2 (RLARIVVIRWAR-NH2) [Peptide 72]
Effect on growth of MAP compared to control [1]: significant reduction in the growth | Time to Positivity (Days.Hours) Experiment 2a (M. tuberculosis; peptide 10 µg/mL): 15.01 Days.Hours | Time to Positivity (Days.Hours) Experiment 2b (M. tuberculosis; peptide 10 µg/mL): 15.13 Days.Hours | Time to Positivity (Days.Hours) Experiment 1a (M. tuberculosis; peptide 10 µg/mL): 6.22 Days.Hours | Time to Positivity (Days.Hours) Experiment 1b (M. tuberculosis; peptide 10 µg/mL): 7.01 Days.Hours | Average % Faster than Control (M. tuberculosis; [6]): −0.2%

wkivfwwrr-CONH2 [Peptide 14D]
Growth enhancement after the peptide was removed [1]: reversible | Effect on growth of MAP (growth-enhancing activity) of protease-stabilised peptides [1]: small improvement in activity | Concentration at which growth inhibition of MTB is observed [2]: ≥ 10 µg/mL | Concentration with strong sustained growth stimulation of MTB [2]: 1000 ng/mL | Time to Positivity (Days.Hours) Experiment 2 (M. tuberculosis; Peptide 14D 0.1 µg/mL): 5.19 Days.Hours | Time to Positivity (Days.Hours) Experiment 1 (M. tuberculosis; Peptide 14D 0.1 µg/mL): 5.12 Days.Hours | Average % Faster than Control (M. tuberculosis; Peptide 14D 0.1 µg/mL, average of two independent experiments): 15.0% | Time to Positivity (Days.Hours) Experiment 2 (M. tuberculosis; Peptide 14D 0.5 µg/mL): 5.17 Days.Hours | Time to Positivity (Days.Hours) Experiment 1 (M. tuberculosis; Peptide 14D 0.5 µg/mL): 5.17 Days.Hours | Average % Faster than Control (M. tuberculosis; Peptide 14D 0.5 µg/mL, average of two independent experiments): 14.1% | Time to Positivity (Days.Hours) Experiment 2 (M. tuberculosis; Peptide 14D 1 µg/mL): 5.08 Days.Hours | Time to Positivity (Days.Hours) Experiment 1 (M. tuberculosis; Peptide 14D 1 µg/mL): 5.05 Days.Hours | Average % Faster than Control (M. tuberculosis; Peptide 14D 1 µg/mL, average of two independent experiments): 21.6% | Increase of time to positivity, first experiment (M. tuberculosis; Peptide 14D 10 µg/mL): 8 h | Increase of time to positivity, second experiment (M. tuberculosis; Peptide 14D 10 µg/mL): 20 h | Time to Positivity (Days.Hours) Experiment 2 (M. tuberculosis; Peptide 14D 10 µg/mL): 7.08 Days.Hours | Time to Positivity (Days.Hours) Experiment 1 (M. tuberculosis; Peptide 14D 10 µg/mL): 7.03 Days.Hours | Average % Faster than Control (M. tuberculosis; Peptide 14D 10 µg/mL, average of two independent experiments, negative = slower): −7.3% | Time to Positivity (Days.Hours) Experiment 2 (M. tuberculosis; Peptide 14D 25 µg/mL): 9.17 Days.Hours | Time to Positivity (Days.Hours) Experiment 1 (M. tuberculosis; Peptide 14D 25 µg/mL): 9.21 Days.Hours | Average % Faster than Control (M. tuberculosis; Peptide 14D 25 µg/mL, average of two independent experiments, negative = slower): −48.7% | Delay of growth (days to reach positivity relative to control) (M. tuberculosis; Peptide 14D 50 µg/mL): about triple | Time to Positivity (Days.Hours) Experiment 1 (M. tuberculosis; Peptide 14D 50 µg/mL): 19.15 Days.Hours | Average % Faster than Control (M. tuberculosis; Peptide 14D 50 µg/mL, average of two independent experiments, negative = slower): −207.6% | Copy number compared with MTB control (MTB H37Rv): higher copy number | Copy number (MTB H37Rv; […], duplicates, cydA Taqman qPCR): 1762000 | Effect on TTP (mycobacteria [3]): shorter TTP | Effect on TTP (mycobacteria [4]): shorter TTP

RRWRIVVIRVRR-CONH2 (RRWRIVVIRVRR-NH2) [Peptide 69]
Effect on growth of MTB compared to control [2]: slight improvements | Effect on TTP of MTB in words (M. tuberculosis; peptide 10 µg/mL): strong hormetic response | Time to Positivity (Days.Hours) Experiment 2a (M. tuberculosis; peptide 10 µg/mL): 13.12 Days.Hours | Time to Positivity (Days.Hours) Experiment 2b (M. tuberculosis; peptide 10 µg/mL): 13.02 Days.Hours | Time to Positivity (Days.Hours) Experiment 1a (M. tuberculosis; peptide 10 µg/mL): 6.02 Days.Hours | Time to Positivity (Days.Hours) Experiment 1b (M. tuberculosis; peptide 10 µg/mL): 6.02 Days.Hours | Average % Faster than Control (M. tuberculosis; [6]): 12.8%

WKIVFWWRR-NH2 [Peptide 14]
Dependence of growth-enhancing effect on starting inoculum [1]: lower inocula being more greatly affected | Effect on growth of MAP compared to control [1]: strongest effects | Effect on growth (Mycobacterium marinum): growth stimulating effect | Effect on growth [5]: growth stimulating effect | Effect on growth (Mycobacterium celatum): growth stimulating effect | Effect on growth (Mycobacterium abscessus): enhance the growth | Effect on growth (M. bovis): growth stimulating effect | Concentration at which growth inhibition of MTB is observed [2]: 50 µg/mL | Effect on growth of MTB compared to control [2]: slight improvements | Upper end of concentration range with hormetic response / growth stimulation in MTB [2]: 10 µg/mL | Effect on TTP of MTB in words (M. tuberculosis; peptide 10 µg/mL): strong hormetic response | Time to Positivity (Days.Hours) Experiment 2a (M. tuberculosis; peptide 10 µg/mL): 13.23 Days.Hours | Time to Positivity (Days.Hours) Experiment 2b (M. tuberculosis; peptide 10 µg/mL): 14.01 Days.Hours | Time to Positivity (Days.Hours) Experiment 1a (M. tuberculosis; peptide 10 µg/mL): 6.01 Days.Hours | Time to Positivity (Days.Hours) Experiment 1b (M. tuberculosis; peptide 10 µg/mL): 6.12 Days.Hours | Average % Faster than Control (M. tuberculosis; [6]): 9.1%

RLARIVVIRVRR-CONH2 (RLARIVVIRVRR-NH2) [Peptide 70]
Effect on growth of MAP compared to control [1]: no discernible effect on the growth | Time to Positivity (Days.Hours) Experiment 2a (M. tuberculosis; peptide 10 µg/mL): 14.22 Days.Hours | Time to Positivity (Days.Hours) Experiment 2b (M. tuberculosis; peptide 10 µg/mL): 15.06 Days.Hours | Time to Positivity (Days.Hours) Experiment 1a (M. tuberculosis; peptide 10 µg/mL): 6.03 Days.Hours | Time to Positivity (Days.Hours) Experiment 1b (M. tuberculosis; peptide 10 µg/mL): 6.19 Days.Hours | Average % Faster than Control (M. tuberculosis; [6]): 4.2%

INLKAIAALVKKLL [Mastoparan-VT6/Wasp]
Time to Positivity (Day.Hours) Experiment 1 (M. tuberculosis): 10.21 Day.Hours | Time to Positivity (Day.Hours) Experiment 2 (M. tuberculosis): 8.04 Day.Hours | Average % Faster than Control (M. tuberculosis; [7]): 9.0%

FLSTIWNGIKSLL [Pantinin-3/Scorpion]
Time to Positivity (Day.Hours) Experiment 1 (M. tuberculosis): 11.08 Day.Hours | Time to Positivity (Day.Hours) Experiment 2 (M. tuberculosis): 8.23 Day.Hours | Average % Faster than Control (M. tuberculosis; [7]): 2.8%

SAPRGCWTKSYPPKPCK [Ranacyclin E/Frog]
Time to Positivity (Day.Hours) Experiment 1 (M. tuberculosis): 10.07 Day.Hours | Time to Positivity (Day.Hours) Experiment 2 (M. tuberculosis): 8.01 Day.Hours | Average % Faster than Control (M. tuberculosis; [7]): 12.2%

KKLLGKLLKKLGKLLL [GLK-19/Designed *]
Time to Positivity (Day.Hours) Experiment 1 (M. tuberculosis): 10.17 Day.Hours | Time to Positivity (Day.Hours) Experiment 2 (M. tuberculosis): 8.04 Day.Hours | Average % Faster than Control (M. tuberculosis; [7]): 9.7%

IRLHRLYTWKATIYTR [PP13/Wasp *]
Time to Positivity (Day.Hours) Experiment 1 (M. tuberculosis): 10.17 Day.Hours | Time to Positivity (Day.Hours) Experiment 2 (M. tuberculosis): 8.02 Day.Hours | Average % Faster than Control (M. tuberculosis; [7]): 10.2%

60: peptide from the authors' library (ILKWKIFKWKWFR) [Peptide 60]
Time to Positivity (Days.Hours) Experiment 2a (M. tuberculosis; peptide 10 µg/mL): 14.19 Days.Hours | Time to Positivity (Days.Hours) Experiment 2b (M. tuberculosis; peptide 10 µg/mL): 14.16 Days.Hours | Time to Positivity (Days.Hours) Experiment 1a (M. tuberculosis; peptide 10 µg/mL): 6.03 Days.Hours | Time to Positivity (Days.Hours) Experiment 1b (M. tuberculosis; peptide 10 µg/mL): 6.02 Days.Hours | Average % Faster than Control (M. tuberculosis; [6]): 7.9%

FLPLFASLIGKLL [Temporin-1Cb/Frog]
Time to Positivity (Day.Hours) Experiment 1 (M. tuberculosis): 11.08 Day.Hours | Time to Positivity (Day.Hours) Experiment 2 (M. tuberculosis): 8.06 Day.Hours | Average % Faster than Control (M. tuberculosis; [7]): 6.6%
